Format in all cases: cell-based
Experiment [1] has as its target T1, mOREG (Mus musculus, UniProt Q920P2).
T1 sequence (Q920P2 1-313): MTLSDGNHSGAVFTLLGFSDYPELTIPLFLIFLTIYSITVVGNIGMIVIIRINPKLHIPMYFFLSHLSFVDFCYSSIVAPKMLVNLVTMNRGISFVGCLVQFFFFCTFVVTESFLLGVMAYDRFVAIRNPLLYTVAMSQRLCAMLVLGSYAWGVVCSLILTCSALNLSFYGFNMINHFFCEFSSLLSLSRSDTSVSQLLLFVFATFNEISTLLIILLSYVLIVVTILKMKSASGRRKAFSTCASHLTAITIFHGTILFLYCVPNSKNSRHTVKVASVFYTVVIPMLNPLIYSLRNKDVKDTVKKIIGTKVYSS
As to the kind of experiment: Ca2+-imaging, control receptor mOREG. As to conditions: read-out: Percent Inhibition mOREG. In a few lines: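 Stable cell lines plated 2 days on poly-D-lysine, loaded with Ca-4 dye 1.5 hr at room temperature, then challenged with odorant in HBSS containing pre-added compounds. Intracellular Ca2+ rise followed by real-time fluorescence, 485 nm excitation/525 nm emission; HBSS and ligand wells serve as negative and positive controls.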

The target in experiment [2] is OR8/OR7 (Anopheles gambiae, UniProt Q7PUT5+Q7QCC7). Put plainly: Ca2+-imaging of stable HEK293T cell line OR8/OR7. The settings on record: for inhibition at 4 µM: HEK-293T, read-out: Percent Inhibition OR8 OR7. In outline: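 Odorant solutions were prepared in HBSS at 9× final, with test compounds transferred in from […] DMSO stocks. These mixtures were applied to dye-loaded HEK293T stable receptor lines, and calcium responses were recorded in real time.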

The target in experiment [3] is T2, serotonin receptor (5HT3) (Mus musculus, UniProt P23979).
T2 construct: Full-length cDNAs for mosquito (Anopheles gambiae) odorant receptor; expressed in transfected cells
T2 sequence (P23979 24-489): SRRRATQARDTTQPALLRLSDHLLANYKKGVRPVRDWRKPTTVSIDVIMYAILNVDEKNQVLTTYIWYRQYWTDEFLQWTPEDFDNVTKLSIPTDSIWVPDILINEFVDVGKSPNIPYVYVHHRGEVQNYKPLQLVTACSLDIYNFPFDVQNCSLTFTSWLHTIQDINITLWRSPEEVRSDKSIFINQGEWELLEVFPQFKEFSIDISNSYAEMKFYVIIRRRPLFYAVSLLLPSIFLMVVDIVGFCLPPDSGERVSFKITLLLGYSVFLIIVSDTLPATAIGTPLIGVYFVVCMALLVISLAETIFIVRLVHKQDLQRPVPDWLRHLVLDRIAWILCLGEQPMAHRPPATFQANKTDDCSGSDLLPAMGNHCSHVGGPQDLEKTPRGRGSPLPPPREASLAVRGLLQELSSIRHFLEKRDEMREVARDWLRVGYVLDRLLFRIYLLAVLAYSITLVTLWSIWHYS
As to the kind of experiment: Ca2+-imaging of stable Flip-In T-Rex cell line 5HT3. The settings on record: for inhibition at 4 µM: read-out: Percent Inhibition 5HT3; for IC50: Table B, read-out: IC50 5HT3. In outline:
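Flp-In T-REx stable lines (Drosophila Or47a/Or83b or mouse 5HT3), 10,000 cells/well cultured 2 days, induced with tetracycline 1 day before assay.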

Where two headings read alike, the source gives them in different places. A value given as a limit tells only on which side of the number the result lay.

OR8/OR7, sequence (Q7QCC7 whole entry): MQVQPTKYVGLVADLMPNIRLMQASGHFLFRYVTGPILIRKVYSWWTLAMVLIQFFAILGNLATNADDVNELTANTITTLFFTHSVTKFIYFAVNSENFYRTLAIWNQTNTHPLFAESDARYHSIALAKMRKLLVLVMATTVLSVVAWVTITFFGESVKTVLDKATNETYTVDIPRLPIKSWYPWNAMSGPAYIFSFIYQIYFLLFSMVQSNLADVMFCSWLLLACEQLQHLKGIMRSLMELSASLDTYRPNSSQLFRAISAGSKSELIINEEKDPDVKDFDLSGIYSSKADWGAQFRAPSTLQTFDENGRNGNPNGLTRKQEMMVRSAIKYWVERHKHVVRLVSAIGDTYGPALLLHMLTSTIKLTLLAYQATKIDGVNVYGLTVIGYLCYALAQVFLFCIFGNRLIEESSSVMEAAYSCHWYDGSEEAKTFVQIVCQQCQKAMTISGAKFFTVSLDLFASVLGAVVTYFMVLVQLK
OR8/OR7, sequence (Q7PUT5 entry or part of it): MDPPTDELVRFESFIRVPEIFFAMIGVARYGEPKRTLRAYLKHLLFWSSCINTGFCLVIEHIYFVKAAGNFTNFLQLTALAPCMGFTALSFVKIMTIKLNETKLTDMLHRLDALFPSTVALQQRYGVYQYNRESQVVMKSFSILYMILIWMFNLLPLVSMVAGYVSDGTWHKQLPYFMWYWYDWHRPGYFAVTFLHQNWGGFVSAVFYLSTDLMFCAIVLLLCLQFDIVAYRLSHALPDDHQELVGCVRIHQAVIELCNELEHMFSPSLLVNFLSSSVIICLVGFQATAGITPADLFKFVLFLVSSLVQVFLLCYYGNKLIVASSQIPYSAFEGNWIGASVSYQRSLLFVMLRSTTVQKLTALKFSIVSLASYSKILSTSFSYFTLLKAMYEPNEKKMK

As usually defined, the inhibition is the share of the control response that was lost under treatment. For `CCN(CC)C(=O)Oc1ccc2c(ccn2Cc2ccccc2Cl)c1NC(=O)CCCCC(=O)OC` [RU-0075446], the inhibition at 4 µM is < 25% in experiment [1], < 25% in experiment [2] and 26 to 50% in experiment [3].

Take `Cc1nn(-c2ccc(Cl)cc2)c(C)c1C(=O)NCc1ccccn1` [RU-0048608]: the inhibition at 4 µM in experiment [1] (compound applied at 4 μM), in experiment [2] (compound applied at 4 μM) and in experiment [3] (compound applied at 4 μM) was < 25% in each case.

With `Cc1ccccc1C(=O)N[C@@H]1CCCCC1NC(=O)C1CCN(C(=O)c2cc(C(F)(F)F)cc(C(F)(F)F)c2)CC1` (stereo partly drawn) [RU-0045778], the inhibition at 4 µM in experiment [1] (compound applied at 4 μM) was 26 to 50%; in experiment [2] (compound applied at 4 μM), < 25%; in experiment [3] (compound applied at 4 μM) it was 26 to 50%.

Take `CCN(CC)c1onc(-c2ccccc2)c1CN(CC1CCCO1)C(=O)c1ccco1` (stereo not drawn) [RU-0036855]: the inhibition at 4 µM in experiment [1] (compound applied at 4 μM) is 26 to 50%; in experiment [2] (compound applied at 4 μM), 26 to 50%; in experiment [3] (compound applied at 4 μM), < 25%.

Take `CCCCCCCC(=O)N1CCCC(C(=O)NC2CCCC[C@H]2NC(=O)c2ccccc2C)C1` (stereo partly drawn) [RU-0045756]: the figures for the inhibition at 4 µM in experiment [1] (compound applied at 4 μM), in experiment [2] (compound applied at 4 μM) and in experiment [3] (compound applied at 4 μM) were 26 to 50%, < 25% and < 25%, respectively.

For `COc1ccccc1CCC(=O)N1CCC(CCC(=O)Nc2ccccc2)CC1` [RU-0032455], the inhibition at 4 µM in experiment [1] (compound applied at 4 μM), in experiment [2] (compound applied at 4 μM) and in experiment [3] (compound applied at 4 μM) was 26 to 50% in each case.

As to `Cc1cccc(Cn2ccnc2CN(C(=O)c2ccccc2F)C2CCCCC2)c1` [RU-0047851], the inhibition at 4 µM in experiment [1] (compound applied at 4 μM) is 26 to 50%; in experiment [2] (compound applied at 4 μM) it was < 25%; in experiment [3] (compound applied at 4 μM), < 25%.

Turning to `CC(C)N(Cc1nccn1Cc1c(F)cccc1Cl)C(=O)c1ccc(Cl)cc1` [RU-0055364], the results for the inhibition at 4 µM in experiment [1] (compound applied at 4 μM), in experiment [2] (compound applied at 4 μM) and in experiment [3] (compound applied at 4 μM) were 26 to 50%, 26 to 50% and < 25%, respectively.

As to `Cc1ccccc1C(=O)N[C@@H]1CCCCC1NC(=O)C1CCCN(S(=O)(=O)c2cc(Cl)ccc2Cl)C1` (stereo partly drawn) [RU-0045691], the inhibition at 4 µM was 26 to 50% in experiment [1] (compound applied at 4 μM), < 25% in experiment [2] (compound applied at 4 μM) and < 25% in experiment [3] (compound applied at 4 μM).

Turning to `Cc1ccccc1C(=O)N[C@@H]1CCCCC1NC(=O)C1CCN(C(=O)C23CC4CC(CC(C4)C2)C3)CC1` (stereo partly drawn) [RU-0045351], the inhibition at 4 µM was 26 to 50% in experiment [1] (compound applied at 4 μM), < 25% in experiment [2] (compound applied at 4 μM) and < 25% in experiment [3] (compound applied at 4 μM).

For `COCCNC(=O)c1ccc(CSc2nnc(-c3ccc(C)cc3)n2-c2ccccc2C)cc1` [RU-0053556], the values for the inhibition at 4 µM in experiment [1] (compound applied at 4 μM), in experiment [2] (compound applied at 4 μM) and in experiment [3] (compound applied at 4 μM) were 26 to 50%, 26 to 50% and < 25%, respectively.

As usually defined, the IC50 is the concentration that gives 50% inhibition. Consider `CCN(CC)c1onc(-c2ccc(F)cc2)c1CN(CCCOC)C(=O)c1ccc2c(c1)OCO2` [RU-0036983], for which the results for the inhibition at 4 µM in experiment [1] (compound applied at 4 μM), in experiment [2] (compound applied at 4 μM) and in experiment [3] (compound applied at 4 μM) were 26 to 50%, 51 to 74% and 26 to 50%, respectively. The IC50 in experiment [2] (Table B, read-out: IC50 OR8) was > 1000 nM.

Regarding `CCNc1nc(NC(C)C)nc(N(C#N)Cc2ccccc2)n1` [RU-0015806], the figures for the inhibition at 4 µM in experiment [1] (compound applied at 4 μM), in experiment [2] (compound applied at 4 μM) and in experiment [3] (compound applied at 4 μM) were < 25%, < 25% and 51 to 74%, respectively. Besides, the half-inhibitory concentration (IC50) in experiment [3] was > 1000 nM.

For `C=CCN(Cc1nccn1Cc1ccccc1F)C(=O)c1cccc(F)c1` [RU-0058232], the inhibition at 4 µM lay in the range of 26 to 50% in experiment [1] (compound applied at 4 μM), 26 to 50% in experiment [2] (compound applied at 4 μM) and 51 to 74% in experiment [3] (compound applied at 4 μM). In experiment [3], the IC50 was > 1000 nM.

The values above are taken from US20130324522A1, “INSECT ODORANT RECEPTOR ANTAGONISTS” (THE ROCKEFELLER UNIVERSITY, priority 2010, published 2013).
